Data reported in PMC11719724, “Antimicrobial Peptides from Porcine Blood Cruor Hydrolysates as a Promising Source of Antifungal Activity” (Foods, 2024).
Where no end group is shown, it is not given here.

How the values were obtained:
[1] = test system: A. versicolor LMA-370; assay type: cell-based, Aspergillus versicolor; conditions: 48 h
Experimental: (§1) A microtitration assay was conducted to determine the minimum inhibitory concentration (MIC) of the peptides against the collection of indicator microorganisms. The growth medium used for the isolated bacterial and fungal strains was TSB and PDB, respectively. In brief, 175 µL of the culture medium was added to the wells of column 1 (negative growth control) and 125 µL to the wells of columns 2–12. Subsequently, 125 µL of each peptide (stock concentration of 2.5 mM), positive control (stock concentration of 256 µg/mL for ampicillin in bacterial tests and 50 µg/mL for natamycin in fungal tests) and negative control (10% DMSO in H2O (v/v)) were added to the wells in column 3 and mixed by pipetting up and down 10 times. A total of 125 µL from column 3 was removed and transferred to column 4, where serial dilutions were performed until the final dilution reached column 12. The final volume was then discarded. […] Subsequently, 50 µL of the indicator strain suspension (at a concentration of 10^5 CFU/mL for yeasts and bacteria and 10^4 CFU/mL for molds) was introduced to all the wells, except for column 1. The culture medium used for culture suspension was identical to that employed in the agar well diffusion method. The microplate was incubated for 24 h at 37 °C for bacterial isolates and for 48 h at 25 °C for fungal isolates.
(§2) The minimal bactericidal/fungicidal concentration (MBC/MFC) was calculated by transferring 10 µL of the wells where no growth could be detected to agar plates (TSA for bacterial isolates and Dichloran Rose Bengal Chloramphenicol Agar (DBRC)) (BD Difco Laboratories, Sparks, MD, USA). After incubation (24 h, 37 °C for bacteria and 48 h, 25 °C, for fungi), the peptide concentration with which no growth was observed, was considered to be the MBC/MFC. The MBC/MIC and MFC/MIC ratios were calculated in order to ascertain the effect of the peptides. A ratio of ≤4 is indicative of bactericidal/fungicidal efficacy, whereas a ratio of >4 indicates bacteriostatic/fungistatic activity.

[2] = test system: Paecilomyces spp. 5332-9a; assay type: cell-based; conditions: 48 h
Experimental: as §1, §2

[3] = test system: Eurotium rubrum 3071.14a; assay type: cell-based; conditions: 48 h
Experimental: as §1, §2

[4] = test system: Debaryomyces hansenii LL11042; assay type: cell-based; conditions: 48 h
Experimental: as §1, §2

[5] = test system: Penicillium chrysogenum LMA-212; assay type: cell-based; conditions: 48 h
Experimental: as §1, §2

[6] = test system: Rhodotorula mucilaginosa 27173; assay type: cell-based; conditions: 48 h
Experimental: as §1, §2

[7] = test system: P. commune 27163; assay type: cell-based, Penicillium commune; conditions: 48 h
Experimental: (§3) A microtitration assay was conducted to determine the minimum inhibitory concentration (MIC) of the peptides against the collection of indicator microorganisms. The growth medium used for the isolated bacterial and fungal strains was TSB and PDB, respectively. In brief, 175 µL of the culture medium was added to the wells of column 1 (negative growth control) and 125 µL to the wells of columns 2–12. Subsequently, 125 µL of each peptide (stock concentration of 2.5 mM), positive control (stock concentration of 256 µg/mL for ampicillin in bacterial tests and 50 µg/mL for natamycin in fungal tests) and negative control (10% DMSO in H2O (v/v)) were added to the wells in column 3 and mixed by pipetting up and down 10 times. A total of 125 µL from column 3 was removed and transferred to column 4, where serial dilutions were performed until the final dilution reached column 12. The final volume was then discarded. […]
(§4) The minimal bactericidal/fungicidal concentration (MBC/MFC) was calculated by transferring 10 µL of the wells where no growth could be detected to agar plates (TSA for bacterial isolates and Dichloran Rose Bengal Chloramphenicol Agar (DBRC)) (BD Difco Laboratories, Sparks, MD, USA). […] The MBC/MIC and MFC/MIC ratios were calculated in order to ascertain the effect of the peptides. […]

[8] = test system: C. guilliermondii 27168; assay type: cell-based, Candida guilliermondii; conditions: 48 h
Experimental: as §3, §4

[9] = test system: Mucor racemosus LMA-722; assay type: cell-based; conditions: 48 h
Experimental: as §1, §2

[10] = test system: Paecilomyces spp. 5332-9a; assay type: cell-based; conditions: Figure 1 pictures C,D; peptides 2.5 mM, natamycin 50 µg/mL, 80 µL per well; 25 °C, 48 h
Experimental: (§5) The sixteen peptides were initially tested using the agar well diffusion method against the indicator strains E. coli, L. ivanovii, R. mucilaginosa, and Paecilomyces spp., as previously described in [22]. To perform this procedure, 25 µL of the prepared culture suspension (adjusted to 10^6 CFU/mL for bacteria and yeasts and 10^5 CFU/mL for molds) was diluted in 25 mL of Tryptic Soy Broth (TSB) (for bacterial strains) or Potato Dextrose Broth (PDB) (for fungal strains) supplemented with 0.75% agar and poured into a Petri dish (90 mm diameter) until dried. The culture media of the suspension was prepared using TSB for bacterial cultures and peptone water (10% w/v) supplemented with 0.1% Tween 80 (w/w) for fungal cultures as it enhances spore dispersion. Subsequent to the drying process, wells were formed using a sterile 5 mL pipette. A volume of 80 µL of each peptide at a concentration of 2.5 mM was added to each well. Ampicillin (MilliporeSigma Canada Ltd., Oakville, ON, Canada), at a concentration of 256 µg/mL and natamycin (MilliporeSigma Canada Ltd., Oakville, ON, Canada) at 50 µg/mL, were used as positive controls for bacterial and fungal tests, respectively, as they are wide-spectrum antimicrobials. The solvent of the peptides was included as negative control in all experiments. […] Thereafter, inhibition halos were measured, and images were captured using a Biorad Chemidoc camera.

[11] = test system: Rhodotorula mucilaginosa 27173; assay type: cell-based; conditions: Figure 1 pictures A,B; peptides 2.5 mM, natamycin 50 µg/mL, 80 µL per well; 25 °C, 48 h
Experimental: as §5

Row | Compound | MIC, Aspergillus versicolor [1] [mM] | MFC, Activity Against Paecilomyces spp. [2] [mM] | MIC, Activity Against Paecilomyces spp. [2] [mM] | MIC, Eurotium rubrum [3] [mM] | MIC, Debaryomyces hansenii [4] [mM] | MIC, Penicillium chrysogenum [5] [mM] | MIC, Activity Against R. mucilaginosa [6] [mM] | MFC, Activity Against R. mucilaginosa [6] [mM] | other results
1 | FRLLGNVIVVV [Pep4] | 0.312 ± 0.0 | 0.625 ± 0.0 | 0.625 ± 0.0 | 0.312 ± 0.0 | 0.312 ± 0.0 | 0.156 ± 0.0 | 0.375 |  | 
2 | FQKVVAGVANALAHKYH [Pep5] | 0.039 ± 0.0 | 0.009 ± 0.0 | 0.009 ± 0.0 | 0.039 ± 0.0 | 0.156 ± 0.0 | 0.312 ± 0.0 | 0.039 ± 0.0 | 0.078 ± 0.0 | MFC, Penicillium commune [7]: 0.312 ± 0.0 mM; MIC, Penicillium commune [7]: 0.312 ± 0.0 mM; MFC, Candida guilliermondii [8]: 0.625 ± 0.0 mM; MIC, Candida guilliermondii [8]: 0.312 ± 0.0 mM; MFC, Aspergillus versicolor [1]: 0.078 ± 0.0 mM; MFC, Mucor racemosus [9]: 0.312 ± 0.0 mM; MIC, Mucor racemosus [9]: 0.312 ± 0.0 mM; MFC, Eurotium rubrum [3]: 0.078 ± 0.0 mM; MFC, Debaryomyces hansenii [4]: 0.156 ± 0.0 mM
3 | NALAHKYH [Pep3] |  | 1.25 ± 0.0 | 0.625 ± 0.0 |  |  |  | 0.625 ± 0.0 | 0.625 ± 0.0 | 
4 | QKVVAGVANALAHKYH [Pep14] |  | 0.078 ± 0.0 | 0.078 ± 0.0 |  |  |  | 0.078 ± 0.0 | 0.078 ± 0.0 | 
5 | LAHKYH [Pep15] |  |  | 1.25 ± 0.0 |  |  |  | 1.25 ± 0.0 | 1.25 ± 0.0 | 
6 | C[C@@H]1C/C=C/C=C/C=C/C=C/[C@H](O[C@@H]2O[C@H](C)[C@@H](O)[C@H](N)[C@@H]2O)C[C@@H]2O[C@](O)(C[C@@H](O)C[C@H]3O[C@@H]3/C=C/C(=O)O1)C[C@H](O)[C@H]2C(=O)O [Natamycin, natamycin] |  |  |  |  |  |  |  |  | inhibition halo (qualitative) [10]: Clear inhibition halos; inhibition halo (qualitative) [11]: Clear inhibition halos
